Publication PMC11582573, “An evolutionarily conserved metabolite inhibits biofilm formation in Escherichia coli K-12” (Nature Communications, 2024)

Experiments:
IspG [1] = molecular target: T1, IspG (Escherichia coli, UniProt P62620); assay: protein thermal shift assay; assay type: binding; details: 200 µM HMBPP, 2 µM protein, 25 mM MOPS pH 7.5, 50 mM NaCl
T1 sequence (P62620 1-372): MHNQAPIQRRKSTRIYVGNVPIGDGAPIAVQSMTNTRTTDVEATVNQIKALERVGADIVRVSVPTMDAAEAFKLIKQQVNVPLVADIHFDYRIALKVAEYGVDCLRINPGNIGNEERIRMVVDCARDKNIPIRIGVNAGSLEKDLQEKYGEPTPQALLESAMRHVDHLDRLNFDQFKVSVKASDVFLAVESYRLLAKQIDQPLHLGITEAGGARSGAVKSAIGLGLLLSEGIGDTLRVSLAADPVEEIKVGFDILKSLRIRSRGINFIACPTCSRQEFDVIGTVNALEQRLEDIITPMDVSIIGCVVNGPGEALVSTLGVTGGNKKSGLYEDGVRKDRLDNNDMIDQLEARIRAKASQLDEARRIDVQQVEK

H-NS = molecular target: T2, H-NS (Escherichia coli, UniProt P0ACF8); assay: microscale thermophoresis; details: read-out: binding affinity
T2 construct: gene hns
T2 sequence (P0ACF8 2-137): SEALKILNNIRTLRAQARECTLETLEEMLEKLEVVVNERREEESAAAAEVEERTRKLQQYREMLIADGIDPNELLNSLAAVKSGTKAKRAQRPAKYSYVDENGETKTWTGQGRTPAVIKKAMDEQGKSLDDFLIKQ

IspG [2] = molecular target: T1, IspG; assay: microscale thermophoresis; details: read-out: binding affinity

Kd (H-NS) [µM]	Kd (IspG [2]) [µM]	SMILES	shift in the melting temperature (IspG [1])
		C/C(=C\COP(=O)(O)OP(=O)(O)O)CO [HMBPP]	MEcPP and HMBPP, two known IspG binding metabolites, effectively changed the melting temperature of IspG
6.46 ± 2.17	29.4 ± 10	C[C@@]1(CO)OP(=O)(O)OP(=O)(O)OC[C@H]1O [MEcPP]	
